In patent US12552793B2, “Purine derivative and medical use thereof” (KANGBAIDA (SICHUAN) BIOTECHNOLOGY CO., LTD., priority 2019, dated 2026) one finds IC50 data, which are given here for 29 compounds.
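Note: enzyme inhibition of DNA-PK with kinase activity read out by chemiluminescence on a microplate reader after adding a kinase detection reagent.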

The target in the first assay is T1, DNA-PK kinase (Homo sapiens (Human), UniProt P78527).
Experiment: not given
As a reminder, the IC50 is the concentration at which inhibition is half-maximal. The compound `Cc1cc(C(N)=O)c(F)cc1Nc1ncc2c(n1)n(C13CC4CC(C1)C(C#N)C(C4)C3)c(=O)n2C` (single isomer, unassigned) [Compound 24-2, 4-((9-(4-Cyanoadamantan-1-yl)-7-methyl-8-oxo-8,9-dihydro-7H-purin-2-yl)amino)-2-fluoro-5-methylbenzamide] came in with an IC50 of 8390 pM.
On to `Cn1c(=O)n(C23CC4CC(CC(O)(C4)C2)C3)c2nc(Nc3cc4c(cc3Cl)OCC4)ncc21` [Compound 33, 2-((6-Chloro-2,3-dihydrobenzofuran-5-yl)amino)-9-(3-hydroxyadamantan-1-yl)-7-methyl-7,9-dihydro-8H-purin-8-one], for which the IC50 is 6400 pM.
As to `Cc1cc(C#N)ccc1Nc1ncc2c(n1)n(C1C3CC4CC1CC(O)(C4)C3)c(=O)n2C` (single isomer, unassigned) [Compound 13-2, 4-((9-(5-Hydroxyadamantan-2-yl)-7-methyl-8-oxo-8,9-dihydro-7H-purin-2-yl)amino)-3-methylbenzonitrile], half-maximal inhibition (IC50) required 51900 pM.
The compound `Cc1cc2ncnn2cc1Nc1ncc2c(n1)n(C13CC4CC(CC(C(=O)OC(C)(C)C)(C4)C1)C3)c(=O)n2C` [Compound 3, tert-Butyl-3-(7-methyl-2-[(7-methyl-[1,2,4]triazolo[1,5-a]pyridin-6-yl)amino]-8-oxo-8,9-dihydro-7H-purin-9-yl)adamantane-1-carboxylate] returned an IC50 of 15000 pM. This IC50 lies about 3.5-fold lower than the previous one.
The compound `Cc1cc2ncnn2cc1Nc1ncc2c(n1)n(C13CC4CC(CC(CO)(C4)C1)C3)c(=O)n2C` [Compound 8, 7-Methyl-2-[(7-methyl-[1,2,4]triazolo[1,5-a]pyridin-6-yl)amino]-9-[3-(hydroxymethyl)adamantan-1-yl]-8,9-dihydro-7H-purin-8-one] showed an IC50 of 10 pM. Against the preceding compound, the IC50 is about 1500-fold lower.
For `Cc1cc(C(N)=O)c(F)cc1Nc1ncc2c(n1)n(C1C3CC4CC1CC(O)(C4)C3)c(=O)n2C` (single isomer, unassigned) [Compound 27-1, 2-Fluoro-4-((9-(5-hydroxyadamantan-2-yl)-7-methyl-8-oxo-8,9-dihydro-7H-purin-2-yl)amino)-5-methylbenzamide], inhibition was half-maximal at 10500 pM (IC50).
Still for that read-out and setting: to `Cc1cc2ncnn2cc1Nc1ncc2c(n1)n(C1C3CC4CC1CC(C#N)(C4)C3)c(=O)n2C` (single isomer, unassigned) [Compound 28-2, 4-(7-Methyl-2-((7-methyl-[1,2,4]triazolo[1,5-a]pyridin-6-yl)amino)-8-oxo-7,8-dihydro-9H-purin-9-yl)adamantane-1-carbonitrile] belongs 100 pM; to `Cc1cc2ncnn2cc1Nc1ncc2c(n1)n(C13CC4CC(CC(C(=O)O)(C4)C1)C3)c(=O)n2C` [Compound 4, 3-(7-Methyl-2-((7-methyl-[1,2,4]triazolo[1,5-a]pyridin-6-yl)amino)-8-oxo-7,8-dihydro-9H-purin-9-yl)adamantane-1-carboxylic acid], 450 pM; to `Cc1cc(C(N)=O)c(F)cc1Nc1ncc2c(n1)n(C13CC4CC(C1)C(C#N)C(C4)C3)c(=O)n2C` (single isomer, unassigned) [Compound 24-1, 4-((9-(4-Cyanoadamantan-1-yl)-7-methyl-8-oxo-8,9-dihydro-7H-purin-2-yl)amino)-2-fluoro-5-methylbenzamide], 660 pM.
In the case of `COC12CC3CC(C1)CC(n1c(=O)n(C)c4cnc(Nc5cn6ncnc6cc5C)nc41)(C3)C2` [Compound 11, 9-(3-Methoxyadamantan-1-yl)-7-methyl-2-((7-methyl-[1,2,4]triazolo[1,5-a]pyridin-6-yl)amino)-7,9-dihydro-8H-purin-8-one], inhibition was half-maximal at 100 pM (IC50).
The same measure, in the same setting: to `Cc1cc2ncnn2cc1Nc1ncc2c(n1)n(C13CC4CC(C1)C(C#N)C(C4)C3)c(=O)n2C` (single isomer, unassigned) [Compound 21-1, 5-(7-Methyl-2-((7-methyl-[1,2,4]triazolo[1,5-a]pyridin-6-yl)amino)-8-oxo-7,8-dihydro-9H-purin-9-yl)adamantane-2-carbonitrile] belongs 10 pM.
Consider `Cc1cc(C#N)ccc1Nc1ncc2c(n1)n(C1C3CC4CC1CC(O)(C4)C3)c(=O)n2C` (single isomer, unassigned) [Compound 13-1, 4-((9-(5-Hydroxyadamantan-2-yl)-7-methyl-8-oxo-8,9-dihydro-7H-purin-2-yl)amino)-3-methylbenzonitrile], for which the IC50 was 680 pM.
Still for that read-out and setting: the same measure for `COC1(OC)C2CC3CC1CC(n1c(=O)n(C)c4cnc(Nc5cc6c(cc5C)OCC6)nc41)(C3)C2` [Compound 31, 9-(4,4-Dimethoxyadamantan-1-yl)-7-methyl-2-((6-methyl-2,3-dihydrobenzofuran-5-yl)amino)-7,9-dihydro-8H-purin-8-one]: 100 pM; for `Cc1cc(C(N)=O)c(F)cc1Nc1ncc2c(n1)n(C13CC4CC(C1)C(=O)C(C4)C3)c(=O)n2C` [Compound 25, 2-Fluoro-5-methyl-4-((7-methyl-8-oxo-9-(4-oxoadamantan-1-yl)-8,9-dihydro-7H-purin-2-yl)amino)benzamide]: 10 pM.
In turn, `Cc1cc2ncnn2cc1Nc1ncc2c(n1)n(C13CC4CC(C1)C(C#N)C(C4)C3)c(=O)n2C` (single isomer, unassigned) [Compound 21-2, 5-(7-Methyl-2-((7-methyl-[1,2,4]triazolo[1,5-a]pyridin-6-yl)amino)-8-oxo-7,8-dihydro-9H-purin-9-yl)adamantane-2-carbonitrile] registered an IC50 of 100 pM.
`CCOC(=O)C12CC3CC(C1)CC(n1c(=O)n(C)c4cnc(Nc5cn6ncnc6cc5C)nc41)(C3)C2` [Compound 7, Ethyl-3-(7-methyl-2-[(7-methyl-[1,2,4]triazolo[1,5-a]pyridin-6-yl)amino]-8-oxo-8,9-dihydro-7H-purin-9-yl)adamantane-1-carboxylate] showed an IC50 of 10 pM.
`Cc1cc2ncnn2cc1Nc1ncc2c(n1)n(C1C3CC4CC1CC(C#N)(C4)C3)c(=O)n2C` (single isomer, unassigned) [Compound 28-1, 4-(7-Methyl-2-((7-methyl-[1,2,4]triazolo[1,5-a]pyridin-6-yl)amino)-8-oxo-7,8-dihydro-9H-purin-9-yl)adamantane-1-carbonitrile]: the IC50 stood at 750 pM.
In turn, `Cc1cc(C(N)=O)c(F)cc1Nc1ncc2c(n1)n(C13CC4CC(CC(O)(C4)C1)C3)c(=O)n2C` [Compound 22, 2-Fluoro-4-((9-(3-hydroxyadamantan-1-yl)-7-methyl-8-oxo-8,9-dihydro-7H-purin-2-yl)amino)-5-methylbenzamide] came in with an IC50 of 10 pM.
The compound `Cc1cc(C(N)=O)c(F)cc1Nc1ncc2c(n1)n(C13CC4CC(CC(C#N)(C4)C1)C3)c(=O)n2C` [Compound 34, 4-((9-(3-Cyanoadamantan-1-yl)-7-methyl-8-oxo-8,9-dihydro-7H-purin-2-yl)amino)-2-fluoro-5-methylbenzamide] registered an IC50 of 7500 pM.
On to `Cc1cc2c(cc1Nc1ncc3c(n1)n(C14CC5CC(CC(O)(C5)C1)C4)c(=O)n3C)CCO2` [Compound 32, 9-(3-Hydroxyadamantan-1-yl)-7-methyl-2-((6-methyl-2,3-dihydrobenzofuran-5-yl)amino)-7,9-dihydro-8H-purin-8-one], for which the IC50 was determined as 2300 pM.
`Cc1cc2ncnn2cc1Nc1ncc2c(n1)n(C13CC4CC(C1)C(=O)C(C4)C3)c(=O)n2C` [Compound 19, 7-Methyl-2-((7-methyl-[1,2,4]triazolo[1,5-a]pyridin-6-yl)amino)-9-(4-oxoadamantan-1-yl)-7,9-dihydro-8H-purin-8-one] came in with an IC50 of 30 pM.
Compound `Cc1cc2ncnn2cc1Nc1ncc2c(n1)n(C13CC4CC(CC(C(=O)N5CCOCC5)(C4)C1)C3)c(=O)n2C` [Compound 9, 7-Methyl-2-[(7-methyl-[1,2,4]triazolo[1,5-a]pyridin-6-yl)amino]-9-[3-(morpholine-4-carbonyl)adamantan-1-yl]-8,9-dihydro-7H-purin-8-one] returned an IC50 of 1100 pM. Against the preceding compound, the IC50 is about 37-fold higher.
Turning to `Cc1cc2ncnn2cc1Nc1ncc2[nH]c(=O)n(C34CC5CC(CC(O)(C5)C3)C4)c2n1` [Compound 36, 9-(3-Hydroxyadamantan-1-yl)-2-((7-methyl-[1,2,4]triazolo[1,5-a]pyridin-6-yl)amino)-7,9-dihydro-8H-purin-8-one], the IC50 worked out at 320 pM. This IC50 lies about 3.4-fold lower than the previous one.
As to `Cc1cc2c(cc1Nc1ncc3c(n1)n(C14CC5CC(C1)C(=O)C(C5)C4)c(=O)n3C)CCO2` [Compound 30, 7-Methyl-2-((6-methyl-2,3-dihydrobenzofuran-5-yl)amino)-9-(4-oxoadamantan-1-yl)-7,9-dihydro-8H-purin-8-one], half-maximal inhibition (IC50) required 80 pM.
On to `Cc1cc2ncccc2cc1Nc1ncc2c(n1)n(C13CC4CC(CC(O)(C4)C1)C3)c(=O)n2C` [Compound 2, 9-(3-Hydroxyadamantan-1-yl)-7-methyl-2-((7-methylquinolin-6-yl)amino)-7,9-dihydro-8H-purin-8-one], for which the midpoint of inhibition, the IC50, lay at 10 pM.
In the case of `Cc1cc2ncnn2cc1Nc1ncc2c(n1)n(C13CC4CC(CC(N)(C4)C1)C3)c(=O)n2C` [Compound 10, 7-Methyl-2-[(7-methyl-[1,2,4]triazolo[1,5-a]pyridin-6-yl)amino]-9-[3-aminoadamantan-1-yl]-8,9-dihydro-7H-purin-8-one], 2260 pM corresponded to half-maximal inhibition (IC50).
The compound `Cc1cc2ncnn2cc1Nc1ncc2c(n1)n(C13CC4CC(CC(C(N)=O)(C4)C1)C3)c(=O)n2C` [Compound 5, 3-(7-Methyl-2-[(7-methyl-[1,2,4]triazolo[1,5-a]pyridin-6-yl)amino]-8-oxo-8,9-dihydro-7H-purin-9-yl)adamantane-1-carboxamide] showed an IC50 of 3870 pM. This IC50 lies about 1.7-fold higher than the previous one.
For the compound `Cc1cc(C(N)=O)c(F)cc1Nc1ncc2c(n1)n(C1C3CC4CC1CC(O)(C4)C3)c(=O)n2C` (single isomer, unassigned) [2-Fluoro-4-((9-(5-hydroxyadamantan-2-yl)-7-methyl-8-oxo-8,9-dihydro-7H-purin-2-yl)amino)-5-methylbenzamide], the IC50 stood at 480 pM. This IC50 is about 8.1-fold lower than that of the compound before.

The next assay concerns the target T1, DNA-PK kinase. The assay can be described thus: biochemical.
Experimental: Inhibition of DNA-PK Kinase
The inhibitory activity of the compounds against DNA-PK kinase was determined using a DNA-PK kinase assay kit (purchased from Promega, Cat. No. V4107, Batch No. 0000366495). The results were quantified using chemiluminescence, specifically as follows: • i. ADP-fluorescence standard curves at different concentrations were constructed according to the instructions of the kit; • ii. reaction systems (5 L) were prepared in a 384-well white plate; 1 μL of a compound (concentration gradients 1 μM, 200 nM, 40 nM, 8 nM, 1.6 nM, 0.32 nM, 0.064 nM and 0.013 nM were set for each compound), 20 units of DNA-PK kinase, 0.2 μg/μL substrate, 10 μg/μL DNA, 50 μM ATP and 1% DMSO were successively added to each well; • iii. the mixtures were well mixed, centrifuged (1000 rpm, 30 s), and incubated at 37° C. for 60 min; • iv. the reactions were terminated by adding 5 μL of ADP-Glo™ Reagent; the mixtures were well mixed, centrifuged (1000 rpm, 30 s), and incubated at room temperature for 40 min; • v. 10 μL of Kinase Detection Reagent was added; the mixtures were well mixed by shaking, centrifuged (1000 rpm, 30 s), and incubated at room temperature for 30 min; • vi. fluorescence values were measured using a microplate reader (Thermo fisher, Varioskan LUX). IC50 was calculated using GraphPad Prism 8.
For `CNC(=O)c1cc(C)c(Nc2ncc3c(n2)n(C24CC5CC(CC(O)(C5)C2)C4)c(=O)n3C)cn1` [Compound 15, 5-((9-(3-Hydroxyadamantan-1-yl)-7-methyl-8-oxo-8,9-dihydro-7H-purin-2-yl)amino)-N,4-dimethylpicolinamide], it took 1100 pM to reach half-maximal inhibition (IC50). That is a single-digit nanomolar value.
